# From PMC10845951, “Characterization of a selective, iron-chelating antifungal compound that disrupts fungal metabolism and synergizes with fluconazole” (Microbiology Spectrum, 2024)
# How the values were obtained:
# [1] = test system: Aft1/2 target genes FTR1, FET3, HMX1, LSO1 in WT S. cerevisiae; assay: RT-qPCR of Aft1/2 target genes; assay type: cell-based, Saccharomyces cerevisiae; conditions: WT Sc cells, 10 µM, 24 h
# Method: (§1) WT and […] cells were grown overnight in complete supplement mixture (CSM). […] After 24 h of incubation, cells were collected, and total RNA purification, reverse transcription, and RT-qPCR were performed as previously described with minor modifications ([59], [66]). Briefly, total RNA was purified using the RNeasy Mini Kit (74104, Qiagen), and reverse transcription was performed using the QuantiTect Reverse Transcription Kit (205311, Qiagen). RT-qPCR experiments were done using the HOT FIREPol EvaGreen qPCR Mix (08-36-00001-10, Solis Biodyne) and a LightCycler 96 System (Roche). Expression of the 5S gene was used as a control. The primers used in RT-qPCR experiments are as follows: […]
# [2] = test system: C. glabrata WT; assay: Cell proliferation with metal supplementation; assay type: cell-based, Candida glabrata
# Method: One-millimolar stocks of metal solutions (CaCl2, CuCl2, FeCl2, FeCl3, MgCl2, MnCl2, and ZnCl2) were prepared in mQH2O and autoclaved. […] Fifty microliters of either mQH2O or metal solution were added to each well, including 50 µL of refreshed C. glabrata WT with an adjusted OD600 of 0.15. The 96-well plates were measured at OD600 and incubated in plastic bags to prevent evaporation for 24 h, after which the final OD600 was measured.
# [3] = test system: C. glabrata WT (10028) cells; assay: XTT metabolic assay; assay type: cell-based, Candida glabrata; conditions: 0.625, 2.5, 10 µM; 6 and 24 h
# [4] = test system: Aft1/2 target genes in aft1Δ S. cerevisiae; assay: RT-qPCR of Aft1/2 target genes in aft1Δ strain; assay type: cell-based, Saccharomyces cerevisiae; conditions: 10 µM, 24 h
# Method: as §1
# [5] = test system: HEK-293 and HS-5 cells; assay: Incucyte live-cell imaging of treated human cells (morphology, compound precipitation)
# [6] = test system: C. glabrata cells; assay: CellTiter-Glo assay in Candida (relative ATP levels); assay type: cell-based, Candida glabrata; conditions: 0.625, 2.5, 10 µM; 1, 3, 6, 24 h
# Method: The samples were incubated for 24 h at 30°C and then measured for OD600. Equal number of cells were harvested in each time point according to an OD600 of 0.1–0.4 and then centrifuged at 7000 rpm for 5 minutes to remove the supernatant. The cell pellets were resuspended in 100-µL YNB −iron and then transferred to a 96-well plate. Finally, the samples were treated with 100-µL CellTiter-Glo and then measured for luminescence using a plate reader.
smiles,measurement,setting,value
"c1ccc(-c2cccc(-c3ccccn3)n2)nc1 [2,2′:6′,2′′-terpyridine]","expression of Aft1/2 target genes FTR1, FET3, HMX1, LSO1",[1],robust activation
same,expression of control 5S RNA,[1],no effect
same,change of EC50 on metal addition,"[2]; +5 µM Cu^2+ (CuCl2), 24 h",significantly increased
same,change of EC50 on metal addition,"[2]; +5 µM FeCl2, 24 h",significantly increased
same,change of EC50 on metal addition,"[2]; +5 µM Zn^2+ (ZnCl2), 24 h",significantly increased
same,reduction of XTT (mitochondrial activity),[3],significantly inhibited the reduction of XTT
same,transcriptional responses after deletion of AFT1,[4],attenuated the transcriptional responses
same,cell morphology,[5]; 100 µM,morphological changes
same,compound precipitation / solubility,"[5]; cell culture medium, up to 100 µM",better solubility
same,relative ATP levels (luminescence),[6],concentration- and time-dependent reduction in luminescence
